Results reported in US8513260B2, “Pyrazinylpyrazoles” (Bayer CropScience AG, priority 2009, dated 2013).
Read-outs that look alike come from different tables or passages of the source.

Assays:
[1] = logP by HPLC on reversed-phase columns (C 18), EEC Directive 79/831 Annex V.A8; format: physicochemical; settings: for chromatographic logP: reversed-phase C18 HPLC column, read-out: log P
Description: [table] The calibration is effected with unbranched alkan-2-ones (having 3 to 16 carbon atoms) with known logP values (logP values determined on the basis of the retention times by linear interpolation between two successive alkanones).

[2] = tested on: larvae of the mustard beetle (Phaedon cochleariae); assay: Phaedon test (PHAECO spray treatment); format: in vivo; settings: Chinese cabbage discs, after 7 days; for pest or weed control at 500 g/ha: Phaedon cochleariae, 168 h, read-out: efficacy; for efficacy: 500 g/ha
Description: Phaedon Test ([…] Spray Treatment) Solvent: 78.0 parts by weight of acetone • • 1.5 parts by weight of dimethylformamide Emulsifier: 0.5 part by weight of alkylaryl polyglycol ether To prepare an appropriate active ingredient preparation, 1 part by weight of active ingredient is mixed with the stated amounts of solvent and emulsifier, and the concentrate is diluted with emulsifier-containing water to the desired concentration. Discs of Chinese cabbage (Brassica pekinensis) are sprayed with an active ingredient preparation of the desired concentration and, after drying, populated with larvae of the mustard beetle (Phaedon cochleariae). After 7 days, the efficacy in % is determined. 100% means that all beetle larvae have been killed; 0% means that none of the beetle larvae have been killed.

[3] = tested on: red spider mite (Tetranychus urticae); assay: Tetranychus test, OP-resistant (TETRUR spray treatment); format: in vivo; settings: bean leaf discs, after 6 days
Description: Tetranychus Test, OP-Resistant (TETRUR Spray Treatment)
Solvent: 78.0 parts by weight of acetone • • 1.5 parts by weight of dimethylformamide
Emulsifier: 0.5 part by weight of alkylaryl polyglycol ether
To prepare an appropriate active ingredient preparation, 1 part by weight of active ingredient is mixed with the stated amounts of solvent and emulsifier, and the concentrate is diluted with emulsifier-containing water to the desired concentration. Discs of bean leaves (Phaseolus vulgaris) infested by all stages of the red spider mite (Tetranychus urticae) are sprayed with an active ingredient preparation of the desired concentration. After 6 days, the efficacy in % is determined. 100% means that all spider mites have been killed; 0% means that none of the spider mites have been killed.

[4] = tested on: caterpillars of the armyworm (Spodoptera frugiperda); assay: Spodoptera frugiperda test (SPODFR spray treatment); format: in vivo; settings: maize leaf discs, after 7 days; for efficacy: 500 g/ha; for pest or weed control at 500 g/ha: Spodoptera frugiperda, foliar, 168 h, read-out: efficacy
Description: Spodoptera frugiperda Test (SPODFR Spray Treatment) Solvent: 78.0 parts by weight of acetone • • 1.5 parts by weight of dimethylformamide Emulsifier: 0.5 part by weight of alkylaryl polyglycol ether To prepare an appropriate active ingredient preparation, 1 part by weight of active ingredient is mixed with the stated amounts of solvent and emulsifier, and the concentrate is diluted with emulsifier-containing water to the desired concentration. Discs of maize leaves (Zea mays) are sprayed with an active ingredient preparation of the desired concentration and, after drying, populated with caterpillars of the armyworm (Spodoptera frugiperda). After 7 days, the efficacy in % is determined. 100% means that all caterpillars have been killed; 0% means that none of the caterpillars have been killed.

[5] = * LC-MS, acidic range pH 2.7, 0.1% aqueous formic acid and acetonitrile
[6] = pH 2.7, * LC-MS, acidic range pH 2.7, 0.1% aqueous formic acid and acetonitrile

| chromatographic logP [1, 6] | Structure (SMILES) | efficacy [2] [%] | efficacy [4] [%] | also measured |
| --- | --- | --- | --- | --- |
| – | CCCOc1nccnc1-n1nc(C(F)(F)F)c(-c2ccc(Br)cc2)c1N [Ex. 4] | – | – | chromatographic logP ([1]; pH 2.3, ** acidic range pH 2.3, 0.1% aqueous phosphoric acid and acetonitrile): 4.11; pest or weed control at 500 g/ha [2]: 83%; pest or weed control at 500 g/ha ([3]; Tetranychus urticae, foliar, 144 h, 500 g/ha, read-out: efficacy): 90% |
| – | CC(C)Oc1nccnc1-n1nc(C(F)(F)F)c(-c2cc(Cl)cc(C(F)(F)F)c2)c1N [Ex. 13] | 83 | – | – |
| – | Cc1nccnc1-n1nc(C(F)(F)F)c(-c2cc(Cl)cc(C(F)(F)F)c2)c1N [Ex. 23] | 100 | – | efficacy ([3]; 500 g/ha): 100% |
| – | N#Cc1nccnc1-n1nc(C(F)(F)F)c(-c2cc(Cl)cc(C(F)(F)F)c2)c1N [Ex. 27] | 100 | – | – |
| – | CCOc1nccnc1-n1nc(C(F)(F)F)c(-c2cc(Cl)cc(C(F)(F)F)c2)c1N(Cc1ccccc1)Cc1ccccc1 [Ex. 34] | – | – | log P [1, 5]: 7* |
| – | CCOc1nccnc1-n1nc(C(F)(F)F)c(-c2cc(Cl)cc(C(F)(F)F)c2)c1NCc1ccccc1 [Ex. 35] | – | – | efficacy ([3]; 500 g/ha): 90% |
| – | CCOc1nccnc1-n1nc(C(F)(F)F)c(-c2cc(Cl)cc(C(F)(F)F)c2)c1N(Cc1ccc(OC)cc1)Cc1ccc(OC)cc1 [Ex. 43] | 100 | 100 | – |
| – | Nc1c(-c2cc(Cl)cc(C(F)(F)F)c2)c(C(F)(F)F)nn1-c1nccnc1-n1ccnc1 [Ex. 44] | 100 | 100 | – |
| 2.59 | COc1nccnc1-n1nc(C(F)(F)F)c(-c2ccccn2)c1N [Ex. 49] | – | – | – |
| 2.62 | COc1nccnc1-n1nc(C(F)(F)F)c(-c2cncc(Br)c2)c1N [Ex. 50] | – | – | – |
| 2.94 | COc1nccnc1-n1nc(C(F)(F)F)c(-c2ncc(Cl)cc2Cl)c1N [Ex. 52] | – | – | pest or weed control at 500 g/ha [2]: 100% |
| 3.55 | COc1nccnc1-n1nc(C(F)(F)F)c(-c2ccc(Cl)cn2)c1N [Ex. 53] | – | – | – |
| 4.17 | COc1nccnc1-n1nc(C(F)(F)C(F)(F)F)c(-c2ccc(Cl)cn2)c1N [Ex. 54] | – | – | – |
| 2.19 | COc1nccnc1-n1nc(C(F)(F)F)c(-c2cccnc2Cl)c1N [Ex. 57] | – | – | – |
| 3.14 | COc1nccnc1-n1nc(C(F)(F)C(F)(F)F)c(-c2ccc(Cl)nc2)c1N [Ex. 58] | – | – | – |
| – | COc1nccnc1-n1nc(C(F)(F)C(F)F)c(-c2cc(Cl)c3c(c2)OCO3)c1N [Ex. 65] | 100 | 100 | efficacy ([3]; 500 g/ha): 90% |
| – | COc1nccnc1-n1nc(C(F)(F)C(F)F)c(-c2cc(Cl)c3c(c2)CCO3)c1N [Ex. 66] | 100 | 100 | efficacy ([3]; 500 g/ha): 90% |
| 2.79 | COc1nccnc1-n1nc(C2CC2)c(-c2cc(Cl)c3c(c2)OCO3)c1N [Ex. 79] | – | – | pest or weed control at 500 g/ha [2]: 100%; pest or weed control at 500 g/ha [4]: 100% |
| – | COc1nccnc1-n1nc(C(F)(F)F)c(-c2cc(Cl)c(Cl)c(C(F)(F)F)c2)c1N [Ex. 86] | 100 | 100 | – |
| 4.35 | COc1nccnc1-n1nc(C(F)(F)F)c(-c2cc(Cl)c(Cl)c(Cl)c2)c1N [Ex. 87] | – | – | pest or weed control at 500 g/ha [2]: 100%; pest or weed control at 500 g/ha [4]: 100% |
| – | C=C(C)CNc1c(-c2cc(Cl)cc(C(F)(F)F)c2)c(C(F)(F)F)nn1-c1nccnc1OC [Ex. 96] | – | – | efficacy ([3]; 500 g/ha): 100% |
| – | COc1nccnc1-n1nc(C(F)(F)C(F)F)c(-c2cc(Cl)c(Cl)c(Cl)c2)c1N [Ex. 116] | 100 | 100 | efficacy ([3]; 500 g/ha): 90% |
| – | COc1nccnc1-n1nc(C(F)(F)F)c(-c2cc(Cl)c(N(C)C)c(Cl)c2)c1N [Ex. 121] | 100 | 100 | efficacy ([3]; 100 g/ha): 80% |
| – | COc1nccnc1-n1nc(C(F)(F)F)c(-c2ccc(N(C)C)c(Cl)c2)c1N [Ex. 122] | 100 | 100 | – |

| chromatographic logP [1, 6] | Structure (SMILES) | efficacy [2] [%] | efficacy [4] [%] | also measured |
| --- | --- | --- | --- | --- |
| – | COc1nccnc1-n1nc(C(F)(F)F)c(-c2cc(Cl)c(N(C)C)c(C(F)(F)F)c2)c1N [Ex. 123] | 100 | 100 | efficacy ([3]; 500 g/ha): 80% |
| – | COc1nccnc1-n1nc(C(F)(F)F)c(-c2cc(F)c(OC)c(Cl)c2)c1N [Ex. 124] | 100 | 100 | log P ([1]; *** LC-MS, neutral range pH 7.8, 0.001 molar aqueous ammonium hydrogencarbonate and acetonitrile): 3.5***;; efficacy ([3]; 500 g/ha): 90% |
| – | COc1cc(-c2c(C(F)(F)F)nn(-c3nccnc3OC)c2N)ccc1OCC(F)(F)F [Ex. 125] | 100 | – | efficacy ([3]; 500 g/ha): 90% |
| – | CCOc1cc(-c2c(C(F)(F)F)nn(-c3nccnc3OC)c2N)ccc1OCC(F)(F)F [Ex. 127] | 100 | – | efficacy ([3]; 500 g/ha): 90% |
| 2.87 | COc1ccc(-c2c(C(F)(F)F)nn(-c3nccnc3OC)c2N)c(Br)c1OC [Ex. 128] | – | – | – |
| – | Nc1c(-c2cc(Cl)cc(C(F)(F)F)c2)c(C(F)(F)F)nn1-c1nccnc1C(F)(F)F [Ex. 130] | 100 | 100 | – |
| – | COc1cc(-c2c(C(F)(F)F)nn(-c3nccnc3OC)c2N)cc(Cl)c1OCC(F)(F)F [Ex. 134] | 100 | 100 | – |
| 3 | COc1nccnc1-n1nc(C(F)(F)F)c(-c2ccccc2Br)c1N [Ex. 137] | – | – | – |
| 3.09 | COc1nccnc1-n1nc(C(F)(F)F)c(-c2ccccc2I)c1N [Ex. 138] | – | – | – |
| – | CCOc1cc(-c2c(C(F)(F)F)nn(-c3nccnc3OC)c2N)cc(Br)c1OCC(F)(F)F [Ex. 140] | 100 | 100 | log P [1, 5]: 4.3* |
| 3.31 | COc1nccnc1-n1nc(C(F)(F)F)c(-c2c(F)ccc(Cl)c2Cl)c1N [Ex. 142] | – | – | pest or weed control at 500 g/ha [2]: 100% |
| 2.86 | COc1nccnc1-n1nc(C(F)(F)F)c(-c2cc3c(cc2Cl)OCO3)c1N [Ex. 143] | – | – | – |
| – | CCOc1cc(-c2c(C(F)(F)F)nn(-c3nccnc3OC)c2N)cc(Cl)c1OCC(F)(F)F [Ex. 144] | 100 | 100 | efficacy ([3]; 500 g/ha): 100% |
| – | COc1nccnc1-n1nc(C(F)(F)F)c(-c2ccc3c(c2)CCC(C)(C)O3)c1N [Ex. 145] | 100 | – | – |
| 3.47 | COc1cc(-c2c(C(F)(F)F)nn(-c3nccnc3OC)c2N)cc(I)c1OC [Ex. 147] | – | – | – |
| – | COc1cc(-c2c(C(F)(F)C(F)F)nn(-c3nccnc3OC)c2N)cc(C(F)(F)F)c1OC [Ex. 157] | 100 | 100 | efficacy ([3]; 500 g/ha): 100% |
| 2.66 | CCc1nn(-c2nccnc2OC)c(N)c1-c1cc(Cl)c(OC)c(OC)c1 [Ex. 161] | – | – | pest or weed control at 500 g/ha [2]: 100%; pest or weed control at 500 g/ha [4]: 100% |
| – | COc1nccnc1-n1nc(C(F)(F)F)c(-c2cc(F)c(Cl)cc2Cl)c1N [Ex. 166] | 100 | – | efficacy ([3]; 500 g/ha): 90% |
| – | COc1nccnc1-n1nc(C(F)(F)F)c(-c2cc3c(c(C(F)(F)F)c2)OCCO3)c1N [Ex. 173] | 100 | 100 | efficacy ([3]; 500 g/ha): 90% |
| – | COc1cc(-c2c(C(F)(F)F)nn(-c3nccnc3OC)c2N)cc(I)c1OC [Ex. 176] | – | – | log P [1, 5]: 3.87* |
| 3.03 | CCOc1nccnc1-n1nc(CC)c(-c2cc(Br)c3c(c2)OCO3)c1N [Ex. 177] | – | – | – |
| 2.65 | CCc1nn(-c2nccnc2OC)c(N)c1-c1cc(Br)c2c(c1)OCO2 [Ex. 178] | – | – | – |
| – | COc1nccnc1-n1nc(C(F)(F)F)c(-c2cc(Cl)cc(C(F)(F)F)c2)c1N(C)C [compound 107, 1-(3-methoxypyrazin-2-yl)-4-[3-chloro-5-(trifluoromethyl)phenyl]-3-(trifluoromethyl)-1H-pyrazole-5-dimethylamine] | 83 | – | log P [1, 5]: 5.11* |
